Experimental data reported in patent publication US20250361271A1, “PEPTIDE AGONIST” (THE UNIVERSITY OF BIRMINGHAM, priority 2022, published 2025).
Where a SMILES comes first, the peptide text is derived from it. [ ]: non-standard residue; d: D form. d(pGlu) = O=C1CC[C@H](C(=O)O)N1; pGlu = O=C1CC[C@@H](C(=O)O)N1; Aib = CC(C)(N)C(=O)O

What was measured:
[1] = assay type: in vitro ADME, pig
Protocol: Pig eyes were treated with either […] or one of TVS (reverse sequence of SVT comprising amino acids in D-isomeric forms), […] and QGA, derived from the […] sequence. The eyes were then incubated in a dark humified chamber. The eyes were dissected, and the vitreous humour and retina were harvested. The samples were sonicated to break up the tissue and purified using a C18 column. Once purified, the samples were digested and analysed by mass spectrometry.

T1/2 in plasma (mouse) = assay type: in vitro ADME; details: for half-life: mouse, plasma, 1 μM peptide, 37° C.; for stability compared with PEPITEM: in mouse plasma, human plasma, and or mouse blood
From the text: Take all measurements in duplicate.

[2] = system: PBLs on cytokine stimulated HDBECs; details: for % Inhibition (0.3 nM): 0.3 nM peptide; for % Inhibition (0.3 nM) / % Inhibition (3 nM): inhibition of PBL transmigration (as a percentage of adherent cells); for % Inhibition (3 nM): 3 nM peptide; for effectiveness in inhibiting PBL transmigration compared with PEPITEM (% Inhibition at 0.3 and/or 3 nM): PEPITEM 41.90
Protocol: Blood samples were obtained from consensual healthy donors and were collected in EDTA tubes (Sigma-Aldrich). […] 5 ml of blood was layered on top of the density gradient, and was centrifuged at 2500 rpm for 45 minutes. […] The PBMCs were washed twice for 7 minutes at 1500 rpm. Peripheral blood lymphocytes (PBLs) were isolated via panning PBMCs onto a culture flask for 30 minutes at 37° C., allowing monocytes to adhere.
HDBECS defrosted at 37° C. in a 25 cm^2 cell culture flask in 10 ml of media were dissociated using EDTA (Sigma-Aldrich) and Trypsin (Gibco) and seeded on 10 wells in a 12-well tissue culture plates (Falcon) and left to adhere at 37° C. After 24 hours, confluent endothelial layers were cytokine stimulated using 100 U/ml TNF-α (Sigma-Aldrich) and 10 ng/ml IFN-γ (Peprotech) for 24 hours at 37° C. The peptide treatment of the 1×10^6 cells/ml PBLs consisted of adding the peptides immediately before use. […] 1×10^6 PBLs were added to each well and incubated at 37° C., allowing PBLs to adhere to migrate across the endothelium. […] Cells were then fixed with 2% glutaraldehyde for 10 minutes and then imaged using phase-contrast microscopy via an inverted bright-field microscope at 20× magnification.
Imaging of the PBL migration assay was carried out using ImagePro 7 software (Media Cybernetics). Surface adherent cells were categorised as being phase-bright, and transmigrated cells were categorised as phase-dark with altered morphology, appearing as being under the endothelial layer. Images were taken at 5 different fields of each well, and an average of counted adherent and migrated PBLs was calculated.
The same methods described for the in vitro transmigration assay and analysis were used, and PBL transmigration was calculated as a percentage of adherent cells. Peptides were added to the PBLs at concentrations ranging from 0.0001-500 ng/ml on the cytokine stimulated HDBECs and the resulting PBL transmigration (as a percentage of adherent cells) was plotted as a function of log10 of the peptide concentration.
The peptides were added at concentration of 20 ng/ml and run alongside untreated PBL (PBL0) and scrambled protein to analyse their effects on adhesion and transmigration.

[3] = system: primary murine calvarial osteoblasts; experiment: Alkaline phosphatase activity, murine osteoblasts; assay type: cell-based, mouse; details: vs untreated cells
Protocol: Skin was removed from around calvaria using forceps, and the calvaria was dissected out and cleaned of any contaminating tissue. Calvaria were added to αMEM media supplemented with 1 mg/ml of collagenase d (Roche, Basel, Switzerland, COLLD-RO). Tubes were then agitated at 37° C. for 10 minutes and the media discarded. αMEM media supplemented with 1 mg/ml of collagenase d was again added to calvaria and shaken at 37° C. for 30 minutes. Media (containing cells) was then removed and kept on ice. The calvaria were then again shaken at 37° C. for 10 minutes in 1.5 ml of αMEM media supplemented with 5 μM EDTA (Sigma-Aldrich, E7889) and the cell containing media transferred to the sample on ice, pooling the cells. […] Cells on ice were then spun down at 300 g for 4 minutes, resuspended in 1 ml of Basal media and counted using a haemocytometer. […] Mineralisation was assessed by quantifying the level of alkaline phosphate (ALP) activity (absorbance at 405 nm) per condition normalized to the absorbance generated by the untreated control (control on the graph). […] The plate was wrapped in foil and left to run for 45 minutes at 37° C. in an incubated shaker (SciQuip; Shropshire, UK) before being quantified using a Synergy HT plate reader (BioTek) with absorbance set at 405 nm.

[4] = system: primary human osteoblasts; experiment: Alkaline phosphatase activity, human osteoblasts; assay type: cell-based; details: 10 ng/ml peptide, 4 days, vs untreated cells, FIG. 5a
Protocol: Human osteoarthritis subchondral joint tissue was obtained at the time of total knee and hip joint replacement operations from the Royal Orthopaedic Hospital (Birmingham). To isolate primary osteoblasts, cartilage was removed from the femoral condyles and tibial plateaus and cut into 2 mm^2 pieces. Samples were kept in media and cleaned of fat. Media contains DMEM (Sigma, D6546), FCS (10%), GPS (1%), Non-essential amino acid (1%; Sigma, M7145), β10 glycerophosphate (2 mM; Sigma, G9422) and L-Ascorbic acid (50 μg/ml; Sigma, A5960). Bone chips were placed in T75 flasks in 10 mL of media, replacing media every 2-3 days. […]
Osteoblasts (8×10^3 cells/well) were cultured in mineralisation differentiation media in the presence or absence of peptide (10 ng/ml) for 4 days. Mineralisation was assessed by quantifying the level of alkaline phosphate (ALP) activity (absorbance at 405 nm) per condition normalized to the absorbance generated by the untreated control (control on the graph).
To measure ALP activity, cells were washed in PBS before being lysed in 100 μl of RIPA buffer (Thermo Fisher, R^0278) for 15 minutes on ice. […] The plate was wrapped in foil and left to run for 45 minutes at 37° C. in an incubated shaker (SciQuip; Shropshire, UK) before being quantified using a Synergy HT plate reader (BioTek) with absorbance set at 405 nm.

Protocol for T1/2 in blood (mouse): Store at −20° C. or on ice. • 2) Thaw the blood and spin in a centrifuge at 1500×g for 10 minutes at room temperature. • 3) Prepare stock solution of the peptide at 10 mM in DMSO or PBS and dilute solutions by adding 3 μL of 10 mM stock to 297 μL DMSO or PBS (100 μM stock for a final 1 μM concentration). • 4) Add 550 μL blood to an incubation tube and separately add 4 μL of peptide stock solution to an incubation tube. Warm the incubation tubes (5 minutes, 37° C., with shaking). • 5) After warming, add 396 μL of warmed blood to warmed peptide (time=0). Mix well and shake the tube containing the mixed sample (37° C., 1400×g). • 6) At 2, 5, 15, 30, 45 and 60 minutes after contacting the peptide and blood, collect 40 μL of the sample into pre-prepared quench tubes. • 7) Analyse the sample at each time point by mass spectrometry. Take all measurements in duplicate.
The samples were analysed and the T1/2 values were calculated by XenoGesis. The T1/2 values correspond to the time taken for the concentration of the peptide in the blood or plasma to be reduced by 50%.

Compound	half-life (T1/2 in plasma (mouse))	% Inhibition (0.3 nM) [2]	% Inhibition (3 nM) [2]	further results
EGA	–	–	–	eye tissue in which the peptide was found by mass spectrometry [1]: Retina only
C[C@@H](O)[C@H](NC(=O)[C@H](Cc1ccc(O)cc1)NC(=O)[C@@H](N)CO)C(N)=O [SEQ ID NO. 18, H-SYT-NH2] (H-Ser-Tyr-Thr-NH2)	0.283 h	39.18%	42.83%	effectiveness in inhibiting PBL transmigration compared with PEPITEM (% Inhibition at 0.3 and/or 3 nM) [2]: more effective
C[C@@H](NC(=O)CNC(=O)[C@H]1CCC(=O)N1)C(N)=O [SEQ ID NO. 28, pE*GA*-NH2] ([d(pGlu)]-Gly-[dA]-NH2)	–	–	–	half-life (T1/2 in blood (mouse)): 1.17 h
CC(C)[C@H](NC(=O)CNC(=O)[C@@H]1CCC(=O)N1)C(N)=O [SEQ ID NO. 31, pEGV-NH2] ([pGlu]-Gly-Val-NH2)	–	49.94%	50.27%	half-life (T1/2 in blood (mouse); whole blood): > 3 h
CC(C)[C@H](NC(=O)[C@@H](N)CO)C(=O)N[C@@H](CO)C(N)=O [SEQ ID NO. 9, H-SVS-NH2] (H-Ser-Val-Ser-NH2)	1.72 h	42.51%	38.10%	effectiveness in inhibiting PBL transmigration compared with PEPITEM (% Inhibition at 0.3 and/or 3 nM) [2]: more effective
SVTQAA [SEQ ID NO. 40]	–	–	–	PBL transmigration ([2]; PBL0 37%, FIG. 4): 23%; effect on PBL transmigration ([2]; compared to untreated PBL (PBL0), 20 ng/ml): significant (p<0.01) fall in PBL transmigration
CCNC(=O)[C@H](C)NC(=O)CNC(=O)[C@@H]1CCC(=O)N1 [SEQ ID NO. 22, pEGA-NH-Ethyl] ([pGlu]-Gly-Ala-NHEt)	> 3 h	35.40%	–	–
CCNC(=O)[C@H](C)NC(=O)CNC(=O)[C@H](CCC(N)=O)NC(C)=O [SEQ ID NO. 24, Ac-QGA-NH-Ethyl] (Ac-Gln-Gly-Ala-NHEt)	–	50.00%	–	effectiveness in inhibiting PBL transmigration compared with PEPITEM (% Inhibition at 0.3 and/or 3 nM) [2]: more effective
TSV	–	–	–	ALP activity (maturation mineralisation), murine osteoblasts ([3]; 8 days, FIG. 5b): significantly increased
CC(=O)N[C@@H](CO)C(=O)N[C@H](C(=O)N[C@H](C(N)=O)[C@@H](C)O)C(C)C [SEQ ID NO. 5, Ac-SVT-NH2] (Ac-Ser-Val-Thr-NH2)	1.98 h	–	42.50%	effectiveness in inhibiting PBL transmigration compared with PEPITEM (% Inhibition at 0.3 and/or 3 nM) [2]: more effective
C[C@H](NC(=O)CNC(=O)[C@@H]1CCC(=O)N1)C(=O)N(C)C [SEQ ID NO. 30, pEGA-N(Me)2] ([pGlu]-Gly-Ala-NMe2)	–	44.70%	42.65%	half-life (T1/2 in blood (mouse); whole blood): > 3 h
COC[C@H](N)C(=O)N[C@H](C(=O)N[C@H](C(N)=O)[C@@H](C)O)C(C)C [SEQ ID NO. 12, H-S(OMe)VT-NH2] (H-Ser(Me)-Val-Thr-NH2)	–	34.72%	62.27%	effectiveness in inhibiting PBL transmigration compared with PEPITEM (% Inhibition at 0.3 and/or 3 nM) [2]: more effective
ELSNEER [SEQ ID NO. 47, reference compound]	–	–	–	ALP activity (mineralisation), murine osteoblasts ([3]; 10 ng/ml peptide, 4 days, FIG. 5a): did not exhibit a statistically significant change in osteoblast activity; ALP activity (mineralisation), human osteoblasts [4]: did not exhibit a statistically significant change in osteoblast activity
H-S*VT-NH2 [SEQ ID NO. 7]	–	9.50%	–	–
CNC(=O)[C@H](C)NC(=O)CNC(=O)[C@@H]1CCC(=O)N1 [SEQ ID NO. 29, pEGA-NHMe] ([pGlu]-Gly-Ala-NHMe)	–	40.89%	43.35%	half-life (T1/2 in blood (mouse); whole blood): 1.62 h
CC(=O)N[C@@H](CCC(N)=O)C(=O)NCC(=O)NC(C)(C)C(=O)O [SEQ ID NO. 25, Ac-QGAib] (Ac-Gln-Gly-[Aib]-OH)	–	32.00%	–	–
H-S*V*T*-NH2 [SEQ ID NO. 10]	–	24.76%	39.51%	–
C[C@@H](O)[C@H](NC(=O)[C@H](Cc1ccccc1)NC(=O)[C@@H](N)CO)C(N)=O [SEQ ID NO. 16, H-SFT-NH2] (H-Ser-Phe-Thr-NH2)	–	39.78%	33.33%	–
CC(C)C[C@H](NC(=O)CNC(=O)[C@@H]1CCC(=O)N1)C(N)=O [SEQ ID NO. 32, pEGL-NH2] ([pGlu]-Gly-Leu-NH2)	–	25.34%	58.16%	–
CC(=O)N[C@H](CCC(N)=O)C(=O)NCC(=O)N[C@H](C)C(N)=O [SEQ ID NO. 26, Ac-Q*GA*-NH2]	> 3 h	–	–	stability compared with PEPITEM (T1/2 in plasma (mouse)): at least as stable; IC50 [2]: 0.018 nM
NC(=O)[C@H](Cc1ccccc1)NC(=O)CNC(=O)[C@@H]1CCC(=O)N1 [SEQ ID NO. 33, pEGF-NH2] ([pGlu]-Gly-Phe-NH2)	–	49.15%	42.84%	half-life (T1/2 in blood (mouse); whole blood): 2.43 h
CC[C@H](C)[C@H](NC(=O)[C@@H](N)CO)C(=O)N[C@H](C(N)=O)[C@@H](C)O [SEQ ID NO. 14, H-SIT-NH2] (H-Ser-Ile-Thr-NH2)	–	3.40%	28.23%	–
CC(C)[C@H](NC(=O)[C@@H](N)[C@@H](C)O)C(=O)N[C@H](C(N)=O)[C@@H](C)O [SEQ ID NO. 8, H-TVT-NH2] (H-Thr-Val-Thr-NH2)	0.283 h	45.47%	48.19%	effectiveness in inhibiting PBL transmigration compared with PEPITEM (% Inhibition at 0.3 and/or 3 nM) [2]: more effective
CC(C)C[C@H](NC(=O)[C@@H](N)CO)C(=O)N[C@H](C(N)=O)[C@@H](C)O [SEQ ID NO. 15, H-SLT-NH2] (H-Ser-Leu-Thr-NH2)	0.117 h	46.00%	20.75%	effectiveness in inhibiting PBL transmigration compared with PEPITEM (% Inhibition at 0.3 and/or 3 nM) [2]: more effective
CC(=O)N[C@@H](CO)C(=O)N[C@H](C(=O)N[C@H](C(=O)O)[C@@H](C)O)C(C)C [SEQ ID NO. 3, Ac-SVT] (Ac-Ser-Val-Thr-OH)	–	–	36.80%	–
CC(C)[C@@H](NC(=O)[C@H](N)[C@H](C)O)C(=O)N[C@H](CO)C(N)=O (relative stereo) [SEQ ID NO. 11, H-T*V*S*-NH2]	> 3 h	–	–	stability compared with PEPITEM (T1/2 in plasma (mouse)): at least as stable; eye tissue in which the peptide was found by mass spectrometry [1]: Retina only; IC50 [2]: 0.024 nM
CCCCCCNC(=O)[C@@H](NC(=O)[C@@H](NC(=O)[C@@H](N)CO)C(C)C)[C@@H](C)O [SEQ ID NO. 13, H-SVT-NH-Hexyl]	–	23.56%	12.83%	–
C[C@H](NC(=O)CNC(=O)[C@@H]1CCC(=O)N1)C(N)=O [SEQ ID NO. 23, pEGA-NH2] ([pGlu]-Gly-Ala-NH2)	> 3 h	54.50%	–	IC50 [2]: 0.0032 nM; effectiveness in inhibiting PBL transmigration compared with PEPITEM (% Inhibition at 0.3 and/or 3 nM) [2]: more effective; potency at inhibiting the transmigration of T cells compared with PEPITEM (IC50) ([2]; PEPITEM IC50 0.02): more potent
